What is called LD50 is the dose at which mortality reaches 50%. The ED50 is the dose at which the effect has come halfway, by size or by number of responders.

Counter-ions that a name gives are not always drawn. Some results are limits rather than exact numbers.

The test system of data set [1] is reserpine induced hypothermia. The experiment in a line: Antireserpine activity: antagonism of reserpine induced hypothermia (antidepressant activity). The class given is in vivo. The note with it: for Antireserpine Activity in Mice, Relative Potency: relative to Amitriptyline = 1, i.p., reserpine 5 mg/kg i.p.
Another data set in a line: in vivo. The note with it: mouse, ip.
Another data set relates to traction test. The data set is described as follows: Muscle relaxant action: traction test (CNS depressant activity, neurological deficit). The class given is in vivo. The note with it: Mus musculus, ip, mice.
In data set [2] the test system is spontaneous motor activity. The data set is described as follows: Spontaneous motor activity depression (ANIMEX apparatus; CNS depressant activity). The class given is in vivo. The note with it: mice.
Procedure: (§1) The compounds were administered intraperitoneally and the activities of the compounds were compared with those of Amitriptyline.
A further data set deals with mice. The note with it: i.p.
For data set [3], the system named is electroshock induced tonic extensor. The experiment in a line: Anticonvulsant activity: antagonism of electroshock induced tonic extensor. The class given is in vivo. The note with it: Mus musculus, ip, mice, dose which prevents 50% of each response.
Procedure: as §1
The next data set deals with tremorine induced tremor. The data set is described as follows: Antitremorine effect (central anticholinergic effect). The class given is in vivo. The note with it: mice.

Procedure for traction test: as §1
Procedure for tremorine induced tremor: as §1

Turning to `CC(c1ccccc1)c1ccccc1OCCCN(C)C` (centres unmarked) [2-(3-dimethylaminopropoxy)diphenylmethylmethane], the “Antireserpine Activity in Mice, Relative Potency” value in data set [1] amounted to 0.34. This compound also returned a median lethal dose (LD50) in the data set “in vivo” of 155 mg/kg.
In the case of `CC(c1ccccc1)c1ccccc1OCCCCN(C)C` (centres unmarked) [2-(4-dimethylaminobutoxy)diphenylmethylmethane hydrochloride], in data set [1], the “Antireserpine Activity in Mice, Relative Potency” value came out at 0.36. This compound also displayed an LD50 in the data set “in vivo” of 110 mg/kg.
For `CNCCCCOc1ccccc1C(C)c1ccccc1` (centres unmarked) [2-(4-methylaminobutoxy)diphenylmethylmethane hydrochloride], the ED50 in the data set on traction test was above 60 mg/kg; in data set [2] (Mus musculus, ip, ANIMEX apparatus), 32 mg/kg; in data set [3], 25 mg/kg; in the data set on tremorine induced tremor (Mus musculus, ip, tremorine induced tremor), 20 mg/kg. Moreover, in data set [2] (i.p., traction test and spontaneous motor activity), the “CNS depressant action (in words)” value is reported as “weak CNS depressant”. In data set [1] (mice, i.p., compared with Amitriptyline), the “antireserpine activity (in words)” value is given as “antireserpine activity comparable to that of Amitriptyline”. In addition, the “Antireserpine Activity in Mice, Relative Potency” value in data set [1] stood at 0.66. Moreover, the “toxicity (in words)” value in the data set with mice is on record as “low toxicity”. In “in vivo”, this compound had an LD50 of 140 mg/kg. Moreover, in the data set on tremorine induced tremor (i.p.), the “anticholinergic action (in words)” value is “weak CNS depressant and anticholinergic action”.

The values above are taken from US4100299A, “Pharmaceutically active 2-omega-aminoalkoxydiphenylmethylmethanes” (Mitsubishi Chemical Industries Limited, priority 1977, dated 1978).
